Patent US20160304577A1, “GLYCOSYLATED GLYCOPHORIN PEPTIDES” (GLYCOTOPE GMBH, priority 2013, published 2016)
“Also recorded” adds a separate entry of the source. No end group written: not given here.

Experiments:
dendritic cells [1] = test: Effect of antigen processing inhibitors on presentation of TFα derived from aGPA (flow cytometry, Nemod-TF1); type: cell-based, human; conditions: DCs treated with inhibitor of lysosomal acidification prior to loading with aGPA
Experimental: DCs were pretreated with indicated concentrations of chloroquine (a) and ammonium chloride (b) before aGPA was added. Presentation of TFα was analyzed by flow cytometry using Nemod-TF1. Data are presented as the percentage of the relative presentation which was calculated according to the following formula: (percentage of positive cells incubated with antigen processing inhibitors)/(percentage of positive cells of untreated cells)×(100)). The means of one experiment performed in duplicates are shown.
In order to characterize the processing pathway of aGPA, dendritic cells were treated with inhibitors of lysosomal acidification, chloroquine and ammonium chloride (MHC class II processing) prior to loading. […] These findings verify that aGPA is processed in the cell before TFα is presented on the cell surface.

DCs = test: Presentation of biotin-conjugated GPA-derived peptides on DCs, fluorescence-labeled streptavidin, flow cytometry; type: cell-based, human
Experimental: DCs were loaded with the biotin-conjugated peptides GPA1-9(3TF), GPA9-25(4TF), GPA9-25(6TF), GPA26-43(2TF), GPA34-55(4TF), GPA41-55(3TF), GPA45-55(2TF), GPA48-55(1TF) and GPA48-63(1TF). Presentation was determined by fluorescence-labeled streptavidin. The subpopulations of CD80+CD209+, CD80+CD209− and CD80−CD209− mature DCs were analyzed separately. Mean percentages+SD of one experiment performed in duplicates are shown.
DCs were loaded with the biotin-conjugated peptides. Presentation was determined by fluorescence-labeled streptavidin. The subpopulations CD80+CD209+, CD80+CD209- and CD80−CD209− mature DCs were analyzed separately. Mean percentages+SD of one experiment performed in triplicates are shown.
For that reason the GPA-derived TF-α glycosylated peptides GPA1-9(3TF), GPA9-25(4TF), GPA9-25(6TF), GPA26-43(2TF), GPA34-55(4TF), GPA41-55(3TF), GPA45-55(2TF), GPA48-55(1TF) and GPA48-63(1TF) were employed.
By using four different glycosylation variants of GPA26-43, it was aimed to investigate the effect of TFα-glycosylation on the presentation in more detail.

TFα-specific T cells [2] = test: IFN-γ ELISPOT, restimulation of B. ovatus-primed T cells with peptide-loaded DCs; type: cell-based, human; conditions: T cells primed with TFα-positive B. ovatus strain
Experimental: PBMCs of a healthy donor were primed with DCs loaded with TFα positive B. ovatus (BO+). Restimulation with GPA26-43(2TF) and GPA34-55(4TF) was analyzed by IFN-γ ELISPOT. The mean numbers of IFN-γ+spots+SEM of one experiment performed in triplicates is shown.
In order to analyze whether DCs loaded with peptide GPA26-43(2TF) or GPA34-55(4TF) can activate TFα-specific T cells, they were used for restimulation of T cells primed with a TFα-positive B. ovatus strain. Restimulation was detected by an IFN-γ ELISPOT assay. […] Since TFα is the only overlapping structure between the TFα-positive B. ovatus strain and the TFα-glycosylated GPA-derived peptides GPA26-43(2TF) and GPA34-55(4TF), it is obvious that the restimulated T cells were TFα-specific. […] This immune response, when elicited in a human being, can protect against cells carrying said carbohydrate structure. In the case of tumor-associated carbohydrate antigens such as TFα, vaccination against and treatment of cancer comprising cells carrying said carbohydrate antigen is possible with these glycosylated glycophorin peptides. Therefore, based on this experiment, GPA-derived TF-α glycosylated peptides are proposed for the use of treating or preventing cancer in human.

dendritic cells [3] = test: Flow cytometry of TFα presentation on dendritic cells loaded with aGPA or GPA (Nemod-TF1, Nemod-TF2); type: cell-based, human
Experimental: GPA- and aGPA-loaded cells were stained with Nemod-TF1 and Nemod-TF2 and analyzed by flow cytometry. The subpopulations of CD80+CD209+, CD80+CD209− and CD80−CD209− cells were analyzed separately. The mean percentages of positive cells+SD of one experiment performed in duplicates are shown.
DCs were loaded with aGPA and GPA for indicated time periods. Presentation of TFα was analyzed on the subpopulations of CD80+CD209+ (a), CD80+CD209− (b) and CD80−CD209− (c) DCs by flow cytometry using Nemod-TF1. Data are presented as mean percentage of positive cells±SD of one experiment performed in duplicates.
In order to analyze the antigen presentation of aGPA in more detail, dendritic cells loaded with aGPA and GPA were analyzed by flow cytometry using anti-TFα antibodies and for co-staining anti-CD80 and anti-CD209 antibodies.
In order to test whether aGPA is unspecifically attached to the cell surface of DCs, aGPA was added 10 min prior to the analysis of surface presentation with the TFα-specific antibody Nemod-TF1 and compared to TFα-presentation after loading times of 1 and 2 d. […] This is important since the presentation on MHC proteins is crucial for activation of TF-α specific T cells.

TFα-specific T cells [4] = test: IFN-γ ELISPOT, second restimulation of TFα-specific T cells with aGPA- or GPA-loaded dendritic cells; type: cell-based; conditions: T cells primed with TFα positive B. ovatus strain and restimulated with lysate of TFα positive human cell line
Experimental: PBMCs of a healthy donor were twice primed with DCs loaded with a TFα positive B. ovatus strain (BO+). Restimulation with DCs loaded with lysate of a TFα positive (HC+) or TFα negative (HC−) human cell line was analyzed by IFN-γ ELISPOT. T cells restimulated with TFα positive cells were further cultivated and restimulated in a second round with aGPA- and GPA-loaded DCs, which was analyzed by IFN-γ ELISPOT. The mean numbers of IFN-γ+spots+SEM of one experiment performed in triplicates (1st restimulation) or of four replicates (2nd restimulation) are shown. IFN-γ+spots of PBMCs without restimulation were subtracted. Statistical analysis was performed using 1 way ANOVA (***: P<0.001).
In order to analyze whether asialoglycophorin A (aGPA)-loaded dendritic cells (DCs) have the potential to activate TFα-specific T cells, a T cell culture, which was primed with a TFα positive B. ovatus strain and restimulated with lysate of a TFα positive human cell line, was restimulated in a second round with dendritic cells loaded with either aGPA or glycophorin A (GPA).

Molecule: Cl.N [ammonium chloride]
- effect on presentation of TFα derived from aGPA (dendritic cells [1]): blocked the presentation of TFα

Molecule: CCN(CC)CCCC(C)Nc1ccnc2cc(Cl)ccc12 (stereo not shown) [chloroquine]
- effect on presentation of TFα derived from aGPA (dendritic cells [1]): blocked the presentation of TFα

Molecule: GPA1-9(3TF): biotin-conjugated GPA-derived TF-α glycosylated peptide (SSTTGVAMH; also: 3 TF-α glycans, sites not given here, biotin-conjugated, site not given here)
- presentation of peptide on DCs (percentage of positive cells) (DCs): strongest presentation on DCs

Molecule: GPA26-43(1TFaa33): glycosylation variant of GPA26-43, biotin-conjugated peptide (NDTHKRDT(TF‑α)YAATPRAHEV; also: biotin-conjugated, site not given here)
- presentation of peptide on DCs (percentage of positive cells) (DCs): presented at a similar percentage

Molecule: GPA26-43(1TFaa37): glycosylation variant of GPA26-43, biotin-conjugated peptide (NDTHKRDTYAAT(TF‑α)PRAHEV; also: biotin-conjugated, site not given here)
- presentation of peptide on DCs (percentage of positive cells) (DCs): less effectively presented than GPA26-43(1TFaa33) and GPA26-43, but more effectively than GPA26-43(2TF)

Molecule: GPA26-43(2TF): biotin-conjugated GPA-derived TF-α glycosylated peptide (NDTHKRDTYAATPRAHEV; also: 2 TF-α glycans, sites not given here, biotin-conjugated, site not given here)
- activation of T cells on restimulation with peptide-loaded DCs (IFN-γ ELISPOT) (TFα-specific T cells [2]): stronger activation of T cells compared to DCs loaded with GPA34-55(4TF)
- presentation of peptide on DCs (percentage of positive cells) (DCs): strongest presentation on DCs; also recorded: better presentation on DCs than GPA34-55(4TF); also recorded: found to be presented on DCs

Molecule: GPA26-43: the unglycosylated GPA26-43, biotin-conjugated peptide (NDTHKRDTYAATPRAHEV; also: biotin-conjugated, site not given here) [reference compound]
- presentation of peptide on DCs (percentage of positive cells) (DCs): presented at a similar percentage

Molecule: GPA48-63(1TF): biotin-conjugated GPA-derived TF-α glycosylated peptide (VRTVYPPEEETGERVQ; also: 1 TF-α glycan, site not given here, biotin-conjugated, site not given here)
- presentation of peptide on DCs (percentage of positive cells) (DCs): strongest presentation on DCs

B1: asialoglycophorin A (protein)
chain: SSTTGVAMHTSTSSSVTKSYISSQTNDTHKRDTYAATPRAHEVSEISVRTVYPPEEETGERVQLAHHFSEPEITLIIFGVMAGVIGTILLISTGIRRLIKKSPSDVKPLPSPDTDVPLSSVEIENPETSDQ
notes: asialoglycophorin A (aGPA)
- percentage of Nemod-TF1- and Nemod-TF2-positive cells (TFα presentation) on loaded DCs (dendritic cells [3]; CD80+CD209+, CD80+CD209− and CD80−CD209− DCs): increased percentage of Nemod-TF1- and Nemod-TF2-positive cells compared to GPA-loaded cells
- TFα presentation on DCs when added just before staining (unspecific attachment) (dendritic cells [3]; added 10 min prior to analysis with Nemod-TF1, compared to loading times of 1 and 2 d, all three DC subpopulations): no presentation was found
- activation of T cells on restimulation with loaded dendritic cells (IFN-γ ELISPOT) (TFα-specific T cells [4]): visible activation of T cells

B2: glycophorin A (protein)
chain: B1 chain
notes: glycophorin A (GPA)
- activation of T cells on restimulation with loaded dendritic cells (IFN-γ ELISPOT) (TFα-specific T cells [4]): almost no restimulation
